Reference: patent US11987586B1 (TAKEDA PHARMACEUTICAL COMPANY LIMITED, priority 2022, dated 2024)

Each compound was assayed against T1, human OX2 receptor (Homo sapiens, UniProt O43614) (assay: Measurement of orexin type 2 receptor agonist activity (calcium fluorescence, Fluo-4, FDSS)). Conditions: 3 uM test compound; CHO cells expressing human OX2 receptor; DMSO = 0%, 10 nM orexin A (human) = 100%.
T1 construct: expressed in transfected cells
T1 sequence (O43614 1-444): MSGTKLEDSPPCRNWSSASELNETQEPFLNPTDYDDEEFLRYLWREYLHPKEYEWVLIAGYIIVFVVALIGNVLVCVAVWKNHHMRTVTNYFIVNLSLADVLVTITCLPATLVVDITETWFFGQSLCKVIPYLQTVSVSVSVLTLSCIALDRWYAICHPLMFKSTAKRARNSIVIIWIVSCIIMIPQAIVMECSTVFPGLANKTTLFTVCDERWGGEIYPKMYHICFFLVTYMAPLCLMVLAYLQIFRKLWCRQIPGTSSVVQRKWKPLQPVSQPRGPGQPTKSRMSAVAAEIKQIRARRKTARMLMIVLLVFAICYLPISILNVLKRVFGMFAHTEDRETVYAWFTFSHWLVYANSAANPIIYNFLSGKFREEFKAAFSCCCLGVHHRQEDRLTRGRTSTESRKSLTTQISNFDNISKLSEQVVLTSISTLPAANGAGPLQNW
Format: cell-based
Procedure, shortened: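 Agonist activity (%) was normalised to the response to 10 nM final human orexin A (100%) and to the DMSO vehicle (0%). The response was measured as the Fluo-4 calcium signal, read kinetically over 1 min 40 s after compound addition to Fluo-4/probenecid-loaded stable CHO-K1 clones expressing human OX2 (aa 1-444).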

Row | SMILES | OX2R agonist activity (3 uM, %) [%]
1 | Cc1cc2onc(N3CC[C@H]4N(C[C@@H](NS(=O)(=O)C5CC5)C4(F)F)C3=O)c2c(-c2c(F)cccc2F)n1 [Example 268, N-{(4aR,6R)-2-[4-(2,6-difluorophenyl)-6-methyl[1,2]oxazolo[4,5-c]pyridin-3-yl]-5,5-difluoro-1-oxooctahydropyrrolo[1,2-c]pyrimidin-6-yl}cyclopropanesulfonamide] | 104
2 | CS(=O)(=O)N[C@@H]1CN2C(=O)N(c3noc4cccc(-c5cccc(F)c5F)c34)CC[C@@H]2C1(F)F [Example 276, N-{(4aR,6R)-2-[4-(2,3-difluorophenyl)-1,2-benzoxazol-3-yl]-5,5-difluoro-1-oxooctahydropyrrolo[1,2-c]pyrimidin-6-yl}methanesulfonamide] | 100
3 | COc1cc(-c2c(F)cc(F)cc2F)c2c(N3CC[C@H]4N(C[C@@H](NS(C)(=O)=O)C4(F)F)C3=O)noc2n1 [Example 294, N-{(4aR,6R)-5,5-difluoro-2-[6-methoxy-4-(2,4,6-trifluorophenyl)[1,2]oxazolo[5,4-b]pyridin-3-yl]-1-oxooctahydropyrrolo[1,2-c]pyrimidin-6-yl}methanesulfonamide] | 104
4 | CS(=O)(=O)NC1Cn2c(cn(-c3noc4cc(F)cc(-c5c(F)cc(F)cc5F)c34)c2=O)CC1(F)F (single isomer, unassigned) [Example 214, N-{(6R*)-7,7-difluoro-2-[6-fluoro-4-(2,4,6-trifluorophenyl)-1,2-benzoxazol-3-yl]-3-oxo-2,3,5,6,7,8-hexahydroimidazo[1,5-a]pyridin-6-yl}methanesulfonamide] | 106
5 | CS(=O)(=O)N[C@H]1C[C@H]2CCN(c3noc4cccc(-c5c(F)cccc5F)c34)C(=O)N2C1 [Example 317, N-{(4aR,6S)-2-[4-(2,6-difluorophenyl)-1,2-benzoxazol-3-yl]-1-oxooctahydropyrrolo[1,2-c]pyrimidin-6-yl}methanesulfonamide] | 110
6 | CS(=O)(=O)N[C@@H]1Cn2c(cn(-c3noc4cc(CO)cc(-c5c(F)cc(F)cc5F)c34)c2=O)C1(F)F [Example 128, N-{(6R)-7,7-difluoro-2-[6-(hydroxymethyl)-4-(2,4,6-trifluorophenyl)-1,2-benzoxazol-3-yl]-3-oxo-2,5,6,7-tetrahydro-3H-pyrrolo[1,2-c]imidazol-6-yl}methanesulfonamide] | 98
7 | CCS(=O)(=O)N[C@H]1C[C@H]2CN(c3nsc4cccc(-c5c(F)cccc5F)c34)C(=O)N2C1 [Example 55, N-{(6S,7aS)-2-[4-(2,6-difluorophenyl)-1,2-benzothiazol-3-yl]-3-oxohexahydro-1H-pyrrolo[1,2-c]imidazol-6-yl}ethanesulfonamide] | 108
8 | CNS(=O)(=O)N[C@@H]1CN2C(=O)N(c3noc4cc(F)cc(-c5c(F)cc(F)cc5F)c34)C[C@@H]2C1(F)F [Example 144, N-{(6R,7aR)-7,7-Difluoro-2-[6-fluoro-4-(2,4,6-trifluorophenyl)-1,2-benzoxazol-3-yl]-3-oxohexahydro-1H-pyrrolo[1,2-c]imidazol-6-yl}-N′-methylsulfuric diamide] | 102
9 | O=C1N(c2noc3cc(F)cc(-c4c(F)cccc4F)c23)C[C@H]2N1C[C@@H](NS(=O)(=O)CF)C2(F)F [Example 287, N-{(6R,7aR)-2-[4-(2,6-difluorophenyl)-6-fluoro-1,2-benzoxazol-3-yl]-7,7-difluoro-3-oxohexahydro-1H-pyrrolo[1,2-c]imidazol-6-yl}-1-fluoromethanesulfonamide] | 101
10 | CS(=O)(=O)N[C@@H]1Cn2c(cn(-c3noc4cc(Cl)c(F)c(-c5c(F)cccc5F)c34)c2=O)C1(F)F [Example 95, N-{(6R)-2-[6-chloro-4-(2,6-difluorophenyl)-5-fluoro-1,2-benzoxazol-3-yl]-7,7-difluoro-3-oxo-2,5,6,7-tetrahydro-3H-pyrrolo[1,2-c]imidazol-6-yl}methanesulfonamide] | 104
11 | CCS(=O)(=O)N[C@@H]1CN2C(=O)N(c3noc4cc(COC)cc(-c5c(F)cc(F)cc5F)c34)CC[C@@H]2C1(F)F [Example 232, N-{(4aR,6R)-5,5-difluoro-2-[6-(methoxymethyl)-4-(2,4,6-trifluorophenyl)-1,2-benzoxazol-3-yl]-1-oxooctahydropyrrolo[1,2-c]pyrimidin-6-yl}ethanesulfonamide] | 107
12 | CCS(=O)(=O)N[C@H]1Cc2cn(-c3noc4cc(C(F)(F)F)cc(-c5c(F)cccc5F)c34)c(=O)n2C1 [Example 84, N-{(6S)-2-[4-(2,6-difluorophenyl)-6-(trifluoromethyl)-1,2-benzoxazol-3-yl]-3-oxo-2,5,6,7-tetrahydro-3H-pyrrolo[1,2-c]imidazol-6-yl}ethanesulfonamide] | 92
13 | CS(=O)(=O)N[C@H]1C[C@H]2CCN(c3noc4cccc(-c5c(F)cc(F)cc5F)c34)C(=O)N2C1 [Example 195] | 106
14 | O=C1N(c2noc3cc(F)cc(-c4c(F)cccc4F)c23)CC[C@H]2N1C[C@@H](NS(=O)(=O)CF)C2(F)F [Example 279, N-{(4aR,6R)-2-[4-(2,6-difluorophenyl)-6-fluoro-1,2-benzoxazol-3-yl]-5,5-difluoro-1-oxooctahydropyrrolo[1,2-c]pyrimidin-6-yl}-1-fluoromethanesulfonamide] | 104
15 | CS(=O)(=O)N[C@@H]1Cn2c(cn(-c3noc4nc(C5CC5)cc(-c5c(F)cccc5F)c34)c2=O)C1(F)F [Example 197, N-{(6R)-2-[6-cyclopropyl-4-(2,6-difluorophenyl)[1,2]oxazolo[5,4-b]pyridin-3-yl]-7,7-difluoro-3-oxo-2,5,6,7-tetrahydro-3H-pyrrolo[1,2-c]imidazol-6-yl}methanesulfonamide] | 115
16 | CS(=O)(=O)N[C@@H]1CN2C(=O)N(c3noc4ccc(F)c(-c5c(F)cc(F)cc5F)c34)C[C@@H]2C1(F)F [Example 47, N-{(6R,7aR)-7,7-Difluoro-2-[5-fluoro-4-(2,4,6-trifluorophenyl)-1,2-benzoxazol-3-yl]-3-oxohexahydro-1H-pyrrolo[1,2-c]imidazol-6-yl}methanesulfonamide] | 91
17 | CCS(=O)(=O)N[C@H]1Cc2c(C)n(-c3noc4cccc(-c5c(F)cccc5F)c34)c(=O)n2C1 [Example 12, N-{(6S)-2-[4-(2,6-difluorophenyl)-1,2-benzoxazol-3-yl]-1-methyl-3-oxo-2,5,6,7-tetrahydro-3H-pyrrolo[1,2-c]imidazol-6-yl}ethanesulfonamide] | 105
18 | O=c1n(-c2noc3cc(C(F)F)cc(-c4c(F)cc(F)cc4F)c23)cc2n1C[C@@H](NS(=O)(=O)CF)C2(F)F [Example 267, N-{(6R)-2-[6-(difluoromethyl)-4-(2,4,6-trifluorophenyl)-1,2-benzoxazol-3-yl]-7,7-difluoro-3-oxo-2,5,6,7-tetrahydro-3H-pyrrolo[1,2-c]imidazol-6-yl}-1-fluoromethanesulfonamide] | 101
19 | CS(=O)(=O)N[C@@H]1Cn2c(cn(-c3noc4cc(C(F)F)cc(-c5c(F)cccc5F)c34)c2=O)C1(F)F [Example 136, N-{(6R)-2-[6-(difluoromethyl)-4-(2,6-difluorophenyl)-1,2-benzoxazol-3-yl]-7,7-difluoro-3-oxo-2,5,6,7-tetrahydro-3H-pyrrolo[1,2-c]imidazol-6-yl}methanesulfonamide] | 99
20 | CS(=O)(=O)N[C@@H]1Cn2c(cn(-c3noc4cc(OC(F)(F)F)cc(-c5c(F)cc(F)cc5F)c34)c2=O)C1(F)F [Example 176, N-{(6R)-7,7-difluoro-3-oxo-2-[6-(trifluoromethoxy)-4-(2,4,6-trifluorophenyl)-1,2-benzoxazol-3-yl]-2,5,6,7-tetrahydro-3H-pyrrolo[1,2-c]imidazol-6-yl}methanesulfonamide] | 89
21 | COc1cc(-c2c(F)cc(F)cc2F)c2c(N3CC[C@H]4N(C[C@@H](NS(=O)(=O)C5CC5)C4(F)F)C3=O)noc2n1 [Example 308, N-{(4aR,6R)-5,5-difluoro-2-[6-methoxy-4-(2,4,6-trifluorophenyl)[1,2]oxazolo[5,4-b]pyridin-3-yl]-1-oxooctahydropyrrolo[1,2-c]pyrimidin-6-yl}cyclopropanesulfonamide] | 100
22 | CCS(=O)(=O)N[C@H]1C[C@H]2CN(c3noc4cccc(-c5sccc5C)c34)C(=O)N2C1 [Example 83, N-{(6S,7aS)-2-[4-(3-methylthiophen-2-yl)-1,2-benzoxazol-3-yl]-3-oxohexahydro-1H-pyrrolo[1,2-c]imidazol-6-yl}ethanesulfonamide] | 84
23 | COCc1cc2onc(N3CC[C@H]4N(C[C@@H](NS(C)(=O)=O)C4(F)F)C3=O)c2c(-c2c(F)cccc2F)c1F [Example 238, N-{(4aR,6R)-2-[4-(2,6-difluorophenyl)-5-fluoro-6-(methoxymethyl)-1,2-benzoxazol-3-yl]-5,5-difluoro-1-oxooctahydropyrrolo[1,2-c]pyrimidin-6-yl}methanesulfonamide] | 106
